Columns and labels:
[1] = test system: collagen type II induced arthritis in the DBA/1 mouse; assay: Collagen type II induced arthritis: limb involvement (number of arthritic limbs); format: in vivo; settings: Example 2B; anti-TNF mAb 300 μg; methylprednisolone acetate 2 mg/kg
Protocol: Male DBA/1 mice were immunized intradermally at 8-12 weeks of age with 100 μg type II collagen emulsified in Freund's complete adjuvant (Difco Laboratories, East Molsey, UK). Day one of arthritis was considered to be the day that erythema and/or swelling was first observed in one or more limbs. Arthritis became clinically evident around 30 days after immunization with type II collagen. For each mouse, treatment was started on the first day that arthritis was observed and continued over a 10 day period, after which the mice were sacrificed and joints were processed for histology. Monoclonal antibody (mAb) treatment was administered on days 1, 4, and 7. For anti-TNF antibody, TN3-19.12, a neutralizing hamster IgG1 anti-TNFα/β monoclonal antibody (mAb), was used (Sheehan, K. C. et al., J. Immunology 142:3884-3893 (1989)). The isotype control was L2. The anti-TNF antibody and the isotype control were provided by R. Schreiber, Washington University Medical School (St. Louis, Mo., USA), in conjunction with Celltech (Slough, UK). The cell-depleting anti-CD4 monoclonal antibody (rat IgG2b) consisted of a 1:1 mixture of YTS 191.1.2 and YTA 3.1.2, provided by H. Waldmann (University of Cambridge, UK) (Galfre, G. et al., Nature 277: 131-133 (1979); Cobbold, S. P. et al., Nature 312: 548-551 (1984); Qin, S. et al., European J. Immunology 17:1159-1165 (1987)).
In collagen-induced arthritis, as in RA, it is usual for additional limbs to become involved after the initial appearance of clinical disease and new limb involvement is an important indicator of the progression of the disease. […]
Male DBA/1 mice were immunized intradermally with 100 μg of bovine type II collagen emulsified in complete Freund's adjuvant (Difco Laboratories, East Molsey, UK). […] Arthritis was monitored for clinical score and paw swelling (measured with calipers) for 10 days, after which the mice were sacrificed and joints were processed for histology. […]

[2] = test system: TNF expression in the joints; assay: Immunohistochemical studies of TNF expression in joints; format: in vivo, mouse; settings: preliminary immunohistochemical studies; mice with collagen-induced arthritis
Text: These findings indicate that rolipram is effective in established collagen-induced arthritis and may therefore be useful in the treatment of RA.

[3] = test system: collagen type II induced arthritis in the DBA/1 mouse; assay: Collagen type II induced arthritis: clinical score; format: in vivo; settings: Example 7B
Protocol: Male DBA/1 mice were immunized intradermally with 100 μg of bovine type II collagen emulsified in complete Freund's adjuvant (Difco Laboratories, East Molsey, UK). The mean day of onset of arthritis was approximately one month after immunization. […] Arthritis was monitored for paw-swelling (measured with calipers) for 10 days, after which the mice were sacrificed and joints were processed for histology.
Clinical Score was assessed on the following scale: 0=normal; 1=slight swelling and/or erythema; 2=pronounced edematous swelling; and 3=joint rigidity. […]
(§1) Male DBA/1 mice were immunized intradermally with 100 μg of bovine type II collagen emulsified in complete Freund's adjuvant (Difco Laboratories, East Molsey, UK). […] Arthritis was monitored for paw swelling (measured with calipers) for 10 days, after which the mice were sacrificed and joints were processed for histology.
Clinical score was assessed on the following scale: 0=normal; 1=slight swelling and/or erythema; 2=pronounced edematous swelling, and 3=joint rigidity. […]
as §1, with “histology. […]” for “histology.”

Structure (SMILES)	Increase (%) in limbs affected [1]	Limbs Affected (mean ± SEM) Day 1 [1]	Limbs Affected (mean ± SEM) Day 10 [1]	TNF expression in the joints [2]	mean clinical score on day 10 (±SE) ([3]; rolipram 3 mg/kg twice daily, anti-TNF mAb 300 μg days 1, 4, 7, maximum score 12)	severity of arthritis (clinical score) ([3]; rolipram 3, 5 or 10 mg/kg i.p. twice daily, vs Cremophor EL)
CC(=O)OCC(=O)[C@@]1(O)CC[C@H]2[C@@H]3C[C@H](C)C4=CC(=O)C=C[C@]4(C)[C@H]3[C@@H](O)C[C@@]21C [Methylprednisolone acetate, methylprednisolone acetate]	33%	1.00 ± 0.00	1.50 ± 0.22			
COc1ccc(C2CNC(=O)C2)cc1OC1CCCC1 (stereo not drawn) [rolipram]				down-regulation of TNF expression in the joints	1.0±0.3	significant reduction in the severity of arthritis

Reference: patent US6770279B1, “TNFα antagonists and cyclosporin in therapy of rheumatoid arthritis” (The Kennedy Institute of Rheumatology, priority 1992, dated 2004)
